# Test results from patent US7973066B2, “Pyrrolo[1,2-A]imidazoledione effective in the treatment of peripheral neurotoxicity induced by chemotherapeutic agents” (Neurotune AG, priority 2006, dated 2011).
# Where two headings read alike, the source gives them in different places.
# How the values were obtained:
# [1] = test system: Taxol-induced peripheral neuropathy; assay: Taxol-induced peripheral neuropathy, paw pressure test; format: in vivo, rat; conditions: for anti-hyperalgesic activity, i.v.: 3 mg/kg i.v.; for anti-hyperalgesic activity, i.v. / anti-hyperalgesic activity, i.p.: 30-90 min from administration; for anti-hyperalgesic activity, i.p.: 30 mg/kg i.p.; for rat paw pressure threshold, anti-hyperalgesic effect: 100 mg/kg given orally, 30 and 60 min after treatment
# Procedure: Taxol neuropathy was induced by i.p. administration (0.5 mg/kg) once a day, on days 1, 3, 5, 8. Cumulative taxol dose was 2 mg/kg. The pharmacological test was performed 14-18 days after the last taxol injection (Polomano R. C. et al. 2001, Pain 94:293-304).
# (§1) When a chemotherapeutic injection was to be given on a same day as behavioural testing, rats were injected after the measurement was taken.
# (§2) Paw mechanical iper-sensitivity was determined using a Randall & Selitto apparatus exerting a force that increases at constant rate (32 g/s) in agreement with Leighton G. E. et al. (1988, Br. J. Pharmacol 93:553-560). The stimulus at which rats withdraw the paw was evaluated before and at different times after drugs treatment. Results represent the mean of mechanical thresholds expressed as grams. To avoid any possible damage to the animal paw the maximum applied force was fixed at 240 g.
# [2] = test system: Oxaliplatin-induced peripheral neuropathy; assay: Oxaliplatin-induced peripheral neuropathy, paw pressure test; format: in vivo, rat; conditions: for prevention of oxaliplatin-induced decrease of mechanical threshold: 100 mg/kg p.o. once daily starting three days before oxaliplatin, tested every week 30 min after administration; for effects on vehicle treated animals (paw pressure): vehicle treated rats
# Procedure: The cumulative dose of oxliplatin was 36 mg/kg (Cavaletti G. et al. 2001, Eur. J. Cancer 37:2457-2463).
# as §1, §2
# Maximum hyperalgesia was obtained after a two weeks period of treatment. […] Compound administration was performed in the same days of chemotherapeutic injection.
# [3] = test system: Vincristine-induced peripheral neuropathy; assay: Vincristine-induced peripheral neuropathy, paw pressure test; format: in vivo, rat; conditions: for anti-hyperalgesic effect on mechanical hyperalgesia after repeated treatment: 30 mg/kg i.p. daily during last five days of vincristine, 1 hr and 12 hr after last administration; for reversal of vincristine mechanical hyper-sensitivity (paw pressure threshold): 100 mg/kg p.o., 30 and 60 min after treatment, 4 days after last vincristine injection; for activity on vehicle treated animals (paw pressure): vehicle treated rats, p.o.
# Procedure: Vincristine was administered i.v. (150 μg/kg), every two days until a cumulative dose of 750 μg/kg was reached. Paw mechanical iper-sensitivity was evaluated 4 days after the last vincristine injection (Marchand F. et al. 2003, Brain Res. 980:117-120).
# as §1, §2
# CIPN [4] = conditions: cancer patients with CIPN; cited from earlier work
# CIPN [5] = conditions: phase III, 10 weeks of therapy; cited from earlier work
# [6] = test system: cisplatin-induced pain syndrome; conditions: 51 patients, maximum dose 100 mg/day; cited from earlier work
# [7] = test system: HT29 human colon carcinoma cell line; assay: In vitro cytotoxicity and combination studies, ATPlite; conditions: for IC50: read-out: cytotoxic effect IC50
# Procedure: In order to verify if the use of NiK-13317 for the treatment of CIPN would not affect the efficacy of anticancer treatments, the effect of NiK-13317 on cytotoxicity of known anticancer drugs was examined in vitro using HT29 human colon carcinoma cell line.
# After 72 hours, cells were lysed and cell metabolic activity was quantified with ATPlite kit (Perkin Elmer Life Science) following manufacturer's recommendations. The ATP present in all metabolically active cells catalyses a reaction of transformation of D-luciferin by Luciferase, producing a luminescent signal measured using VICTOR^3™ Multi Label Reader (Perkin Elmer). Results were expressed as percentage of luminescence produced (i.e. ATP produced) compared to the control. Complete concentration-response curves with anticancer drugs were constructed in order to identify the concentrations producing a submaximal and a maximal cytotoxic effect, to be utilized for combination experiments.
structure (smiles),measurement,setting,value
"Cc1ccc(N2C(=O)CN3C(=O)CCC32)cc1 (racemic) [NiK-13317, racemic 1-(4-Methylphenyl)dihydro-1H-pyrrolo[1,2-a]imidazole-2,5(3H,6H)-dione]","anti-hyperalgesic activity, i.v.",[1],active
same,"anti-hyperalgesic activity, i.p.",[1],active
same,"rat paw pressure threshold, anti-hyperalgesic effect",[1],significantly increased
same,prevention of oxaliplatin-induced decrease of mechanical threshold,[2],completely prevented
same,"anti-hyperalgesic activity, pharmacodynamic experiment, 8 hr","[2]; after 3 weeks of oxaliplatin, 100 mg/kg p.o., 8 hr after treatment",still active
same,"anti-hyperalgesic activity, pharmacodynamic experiment, 30 min and 4 hr","[2]; after 3 weeks of oxaliplatin, given orally, 30 min and 4 hr after administration",active
same,effects on vehicle treated animals (paw pressure),[2]; p.o.,Neither NiK-13317 or gabapentin induced significant effects
same,anti-hyperalgesic effect on mechanical hyperalgesia after repeated treatment,[3],statistically significant (p<0.01) anti-hyperalgesic effect
same,development of tolerance after repeated treatment,"[3]; 30 mg/kg i.p. daily, 5 days",without development of tolerance
same,anti-hyperalgesic effect 23 hr after the 4th administration,"[3]; 30 mg/kg i.p. daily, 23 hr after 4th administration (1 hr before last injection)",statistically significant effect (p<0.05)
same,reversal of vincristine mechanical hyper-sensitivity (paw pressure threshold),[3],pronounced significant reversal
same,activity on vehicle treated animals (paw pressure),[3],devoid of any significant activity
"Cc1ccc(N2C(=O)CN3C(=O)CCC32)cc1 (single isomer, unassigned) [compound of formula (I), 1-(4-Methylphenyl)dihydro-1H-pyrrolo[1,2-a]imidazole-2,5(3H,6H)-dione]",development of tolerance (general statement),"[3]; rat, in vivo",not to develop tolerance
NCC1(CC(=O)O)CCCCC1 [gabapentin],adverse side effects such as nystagmus and dizziness,CIPN [4],significant more adverse side effects
same,"reduction of pain intensity (NRS score), sensory neuropathy (ECOG rating), and other adverse events",CIPN [4],failed to reduce
same,"anti-hyperalgesic activity, i.v.",[1],lacked of any significant effect
same,"anti-hyperalgesic activity, i.p.",[1],lacked of any significant effect
same,"rat paw pressure threshold, anti-hyperalgesic effect",[1],not able to induce any anti-hyperalgesic effect
same,prevention of oxaliplatin-induced decrease of mechanical threshold,[2],only a moderated anti-hyperalgesic effect
same,"anti-hyperalgesic activity, pharmacodynamic experiment, 30 min","[2]; after 3 weeks of oxaliplatin, p.o., 30 min after treatment",only a moderate effect
same,effects on vehicle treated animals (paw pressure),[2]; p.o.,Neither NiK-13317 or gabapentin induced significant effects
same,anti-hyperalgesic effect on mechanical hyperalgesia after repeated treatment,[3],no significant effects
same,reversal of vincristine mechanical hyper-sensitivity (paw pressure threshold),[3],lacked of any significant effects
same,activity on vehicle treated animals (paw pressure),[3],devoid of any significant activity
Nc1nnc(-c2cccc(Cl)c2Cl)c(N)n1 [lamotrigine],reduction of CIPN,CIPN [5],failed to reduce CIPN
CNCCC=C1c2ccccc2CCc2ccccc21 [nortriptyline],efficacy over placebo on cisplatin-induced pain syndrome,[6],lack of nortriptyline efficacy over placebo
O=C1[O][Pt]2([NH][C@@H]3CCCC[C@H]3[NH]2)[O]C1=O [oxaliplatin],IC50,"[7]; HT29 cells, 72 hours, ATPlite",36000 nM
same,paw pressure threshold change caused by repeated oxaliplatin,"[2]; oxaliplatin 2.4 mg/kg i.p., 5 consecutive days every week, evident from first week",decrease in paw pressure threshold
CC(=O)O[C@H]1C(=O)[C@@]2(C)[C@H]([C@H](OC(=O)c3ccccc3)[C@]3(O)C[C@H](OC(=O)[C@H](O)[C@@H](NC(=O)c4ccccc4)c4ccccc4)C(C)=C1C3(C)C)[C@]1(OC(C)=O)CO[C@@H]1C[C@@H]2O [taxol],mechanical hyperalgesia produced by taxol treatment,"[1]; taxol 0.5 mg/kg i.p. on days 1, 3, 5, 8",significant mechanical hyperalgesia
same,concentration of maximal cytotoxic effect,"[7]; HT29 cells, 72 hours, ATPlite",100 nM
same,IC50,"[7]; Homo sapiens, HT-29, 72 h",8 nM
CC[C@]1(O)C[C@H]2CN(CCc3c([nH]c4ccccc34)[C@@](C(=O)OC)(c3cc4c(cc3OC)N(C=O)[C@H]3[C@@](O)(C(=O)OC)[C@H](OC(C)=O)[C@]5(CC)C=CCN6CC[C@]43[C@@H]65)C2)C1 [vincristine],concentration of maximal cytotoxic effect,"[7]; HT29 cells, 72 hours, ATPlite",100 nM
same,IC50,"[7]; Homo sapiens, HT-29, 72 h",7 nM
same,mechanical hyperalgesia produced by vincristine treatment (reduction of paw pressure threshold),"[3]; vincristine 150 μg/kg i.v. every two days, cumulative 750 μg/kg",marked and prolonged mechanical hyperalgesia
